Numbers after ± are expanded uncertainties.
Details: 298.15 K; 101.33 kPa; Liquid; Vibrating tube method

Structure (SMILES)	mass density [kg/m3]
CCCCCCCCCCCC [dodecane]	745.28 ± 0.25
CCCCCCCCCCCCCCCC [hexadecane]	770.31 ± 0.24

Results, then the compound that gave them:

mass density [kg/m3]	Structure (SMILES)
820.63 ± 0.24	CCCCCCCCC(C)=O [2-decanone]
779.1 ± 0.24	CCCCCOCCCCC [dipentyl ether]
760.2 ± 0.24	CCCCCCCCCCCCCC [tetradecane]

Source: the NIST ThermoML archive (doi:10.1016/j.jct.2010.11.004)
